Experimental data published in patent US11976083B2, “Inhibitors of peptidylarginine deiminases” (Gilead Sciences, Inc., priority 2020, dated 2024).
pIC50: −log10 of the molar value.

Biological target: T1, human PAD4 (Homo sapiens, UniProt Q9UM07)
T1 construct: human PAD4 (NM_012387), A2-P663, was PCR amplified; His-SUMO (N, cleaved yes); made in house; host or cells: E. coli BL21(DE3)
Test: In vitro PAD4 BAEE biochemical assay
Conditions: BAEE substrate 3 mM, 5 nM PAD4, 2 mM calcium chloride; geometric mean of multiple experiments
Summary of the method: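 Recombinant PAD4 (5 nM final) with 2 mM CaCl2 was preincubated with compound for 30 min at 25 °C in MOPS pH 7.6 buffer with DTT, then reacted with 3 mM BAEE for 2 h at 25 °C. Released ammonia was detected fluorimetrically with o-phthalaldehyde/DTT; IC50 from four-parameter fit, geometric mean of experiments.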

T1 sequence (Q9UM07 2-663): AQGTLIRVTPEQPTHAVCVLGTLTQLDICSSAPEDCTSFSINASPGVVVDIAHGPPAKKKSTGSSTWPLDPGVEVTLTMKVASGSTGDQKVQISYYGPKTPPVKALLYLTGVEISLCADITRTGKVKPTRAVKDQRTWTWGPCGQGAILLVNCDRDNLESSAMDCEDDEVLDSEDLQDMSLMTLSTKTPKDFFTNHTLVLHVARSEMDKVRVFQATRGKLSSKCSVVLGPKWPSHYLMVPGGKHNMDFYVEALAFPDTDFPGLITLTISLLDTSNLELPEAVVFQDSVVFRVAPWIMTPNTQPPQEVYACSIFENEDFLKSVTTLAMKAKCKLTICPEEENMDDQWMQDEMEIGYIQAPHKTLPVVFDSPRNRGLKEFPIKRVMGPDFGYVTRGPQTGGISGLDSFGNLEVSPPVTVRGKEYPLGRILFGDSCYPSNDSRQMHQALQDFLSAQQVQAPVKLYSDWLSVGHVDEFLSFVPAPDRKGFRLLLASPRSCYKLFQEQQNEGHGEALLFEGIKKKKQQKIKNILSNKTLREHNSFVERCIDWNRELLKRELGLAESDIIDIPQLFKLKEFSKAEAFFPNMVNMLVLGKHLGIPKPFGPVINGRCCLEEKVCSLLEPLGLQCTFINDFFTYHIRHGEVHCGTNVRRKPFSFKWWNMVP

Structure (SMILES) | pIC50
C[C@H]1NC(=O)c2ncccc2CCCCCn2c(-c3nc4cc(C(=O)N[C@H]5CNCC[C@@H]5F)c(F)cc4n3C)cc3ccc1nc32 [Example 498, 6-fluoro-~{N}-[(3~{S}, 4~{S})-4-fluoro-3-piperidyl]-1-methyl-2-[(2~{R})-2-methyl-4-oxo-3,6,16,22-tetrazatetracyclo [14.5.2.0^{5,10}.0^ {19,23}]tricosa-1(22), 5,7,9,17,19(23),20-heptaen-17-yl]benzimidazole-5-carboxamide] | 7.17
C[C@H]1NC(=O)[C@H]2C[C@@H]2CCCCn2c(-c3nc4cc(C(=O)N[C@H]5CNCC[C@@H]5F)c(F)cc4n3C)cc3ccc1nc32 [Example 499, 6-fluoro-~{N}-[(3~ {S},4~{S})-4-fluoro-3-piperidyl]-1-methyl-2-[(2~{R},7~{S})-2-methyl-4-oxo-3,12,18-triazatetracyclo [10.5.2.0^{5,7}.0^{15,19}]nonadeca-1(18), 13,15(19),16-tetraen-13-yl]benzimidazole-5-carboxamide] | 6.79
C[C@H]1NC(=O)C(C)(C)CCCCCCn2c(-c3nc4cc(C(=O)N[C@H]5CNCC[C@@H]5F)ccc4n3C)cc3ccc1nc32 [Example 500, ~{N}-[(3~{S},4~ {S})-4-fluoro-3-piperidyl]-1-methyl-2-[(11~{R})-8,8,11-trimethyl-9-oxo-1,10,19-triazatricyclo[10.5.2.0^ {15,18}]nonadeca-12(19), 13,15(18),16-tetraen-17-yl]benzimidazole-5-carboxamide] | 7.05
C[C@H]1NC(=O)C(C)(C)CCCCCCn2c(-c3nc4cc(C(=O)N[C@H]5CNCC[C@@H]5F)cc(Cl)c4n3C)cc3ccc1nc32 [Example 501, 7-chloro-~{N}-[(3~ {S},4~{S})-4-fluoro-3-piperidyl]-1-methyl-2-[(11~{R})-8,8,11-trimethyl-9-oxo-1,10,19-triazatricyclo[10.5.2.0^{15,18}]nonadeca-12(19),13,15(18), 16-tetraen-17-yl] benzimidazole-5-carboxamide] | 6.57
C[C@H]1NC(=O)C(C)(C)CCCCCCn2c(-c3nc4cc(C(=O)N[C@H]5CNCC[C@@H]5F)c(F)cc4n3CCOC(F)F)cc3ccc1nc32 [Example 502, 1-[2-(difluoromethoxy)ethyl]-6-fluoro-~{N}-[(3~ {S},4~{S})-4-fluoro-3-piperidyl]-2-[(11~{R})-8,8,11-trimethyl-9-oxo-1,10,19-triazatricyclo[10.5.2.0^ {15,18}]nonadeca-12(19),13,15(18),16-tetraen-17-yl]benzimidazole-5-carboxamide] | 6.89
COc1cc(C(=O)N2CC[C@@H](OC)[C@@H](N)C2)cc2nc(-c3cc4ccc5nc4n3CCCCCc3cccnc3C(=O)N[C@@H]5C)n(C)c12 [Example 503, (2~{R})-17-[5-[(3~ {S},4~{R})-3-amino-4-methoxy-piperidine-1-carbonyl]-7-methoxy-1-methyl-benzimidazol-2-yl]-2-methyl-3,6,16,22-tetrazatetracyclo [14.5.2.0^{5,10).0^{19,23}] tricosa-1(22),5(10),6,8,17,19(23),20-heptaen-4-one] | 6.96
CO[C@@H]1CCN(C(=O)c2cc(Cl)c3c(c2)nc(-c2cc4ccc5nc4n2CCCCCc2nccnc2C(=O)N[C@@H]5C)n3C)C[C@@H]1N [Example 504, (2~{R})-17-[5-[(3~ {S},4~{R})-3-amino-4-methoxy-piperidine-1-carbonyl]-7-chloro-1-methyl-benzimidazol-2-yl]-2-methyl-3,6,9,16,22-pentazatetracyclo [14.5.2.0^{5,10}.0^{19, 23}]tricosa-1(22),5(10), 6,8,17,19(23),20-heptaen-4-one] | 6.76
CO[C@@H]1CCN(C(=O)c2cc(Cl)c3c(c2)nc(-c2cc4ccc5nc4n2CCCCC[C@@H]2CC2C(=O)N[C@@H]5C)n3C)C[C@@H]1N (stereo partly shown) [Example 505, (2~{R},7~{R})-14-[5-[(3~{S},4~{R})-3-amino-4-methoxy-piperidine-1-carbonyl]-7-chloro-1-methyl-benzimidazol-2-yl]-2-methyl-3,13,19-triazatetracyclo[11.5.2.0^ {5,7}.0^{16,20}]icosa-1(19),14,16(20),17-tetraen-4-one] | 7.01
C[C@H]1NC(=O)C2C[C@H]2CCCCCn2c(-c3nc4cc(C(=O)N5CCC[C@@H](N)C5)cc(Cl)c4n3C)cc3ccc1nc32 (stereo partly shown) [Example 506, (2~{R},7~{R})-14-[5-[(3~ {R})-3-aminopiperidine-1-carbonyl]-7-chloro-1-methyl-benzimidazol-2-yl]-2-methyl-3,13,19-triazatetracyclo[11.5.2.0^ {5,7}.0^{16,20}]icosa-1(19), 14,16(20),17-tetraen-4-one] | 7.41
C[C@H]1NC(=O)C2C[C@H]2CCCCCn2c(-c3nc4cc(C(=O)N[C@H]5CNCC[C@@H]5F)cc(Cl)c4n3C)cc3ccc1nc32 (stereo partly shown) [Example 507, 7-chloro-~{N}-[(3~ {S},4~{S})-4-fluoro-3-piperidyl]-1-methyl-2-[(2~{R},7~{R})-2-methyl-4-oxo-3,13,19-triazatetracyclo[11.5.2.0^ {5,7}.0^{16,20}]icosa-1 (19),14,16(20),17-tetraen-14-yl]benzimidazole-5-carboxamide] | 7.49
COc1cc(C(=O)N2CC3(CCCNC3)C2)cc2nc(-c3cc4ccc5nc4n3CCCCC[C@@H]3CC3C(=O)N[C@@H]5C)n(C)c12 (stereo partly shown) [Example 508, (2~{R},7~{R})-14-[5-(2,8-diazaspiro [3.5]nonane-2-carbonyl)-7-methoxy-1-methyl-benzimidazol-2-yl]-2-methyl-3,13,19-triazatetracyclo[11.5.2.0^ {5,7}.0^{16,20}]icosa-1(19),14,16(20),17-tetraen-4-one] | 7.24
COc1cc(C(=O)N[C@H](C)CN)cc2nc(-c3cc4ccc5nc4n3CCCCC[C@@H]3CC3C(=O)N[C@@H]5C)n(C)c12 (stereo partly shown) [Example 509, ~{N}-[(1~{R})-2-amino-1-methyl-ethyl]-7-methoxy-1-methyl-2-[(2~{R},7~{R})-2-methyl-4-oxo-3,13,19-triazatetracyclo[11.5.2.0^ {5,7}.0^{16,20}]icosa-1(19),14,16(20),17-tetraen-14-yl]benzimidazole-5-carboxamide] | 6.84
COCCn1c(-c2cc3ccc4nc3n2CCCCCc2nccnc2C(=O)N[C@@H]4C)nc2cc(C(=O)N3CC[C@@H](OC)[C@@H](N)C3)cc(OC)c21 [Example 510, (2~{R})-17-[5-[(3~ {S),4~{R})-3-amino-4-methoxy-piperidine-1-carbonyl]-7-methoxy-1-(2-methoxyethyl)benzimidazol-2-yl]-2-methyl-3,6,9,16,22-pentazatetracyclo[14.5.2.0^ {5,10}.0^{19,23}] tricosa-1(22),5(10),6,8,17,19 (23),20-heptaen-4-one] | 6.56
CO[C@@H]1CCN(C(=O)c2cc(OC(F)F)c3c(c2)nc(-c2cc4ccc5nc4n2CCCCC[C@@H]2C[C@H]2C(=O)N[C@@H]5C)n3C)C[C@@H]1N [Example 511, (2~{R},5~{R}, 7~{R})-14-[5-[(3~{S},4~{R})-3-amino-4-methoxy-piperidine-1-carbonyl]-7-(difluoromethoxy)-1-methyl-benzimidazol-2-yl]-2-methyl-3,13,19-triazatetracyclo[11.5.2.0^ {5,7}.0^{16,20}] icosa-1(19),14,16(20), 17-tetraen-4-one] | 7.02
CO[C@@H]1CCN(C(=O)c2cc(F)c3c(c2)nc(-c2cc4ccc5nc4n2CCCCC[C@@H]2CC2C(=O)N[C@@H]5C)n3C)C[C@@H]1N (stereo partly shown) [Example 512, (2~{R},5~{R},7~ {R})-14-[5-[(3~{S},4~{R})-3-amino-4-methoxy-piperidine-1-carbonyl]-7-fluoro-1-methyl-benzimidazol-2-yl]-2-methyl-3,13,19-triazatetracyclo[11.5.2.0^ {5,7}.0^{16,20}]icosa-1(19),14,16(20),17-tetraen-4-one] | 7.19
CO[C@@H]1CCN(C(=O)c2cc(F)c3c(c2)nc(-c2cc4ccc5nc4n2CCCCCc2nccnc2C(=O)N[C@@H]5C)n3C)C[C@@H]1N [Example 513, (2~{R})-17-[5-[(3~ {S},4~{R})-3-amino-4-methoxy-piperidine-1-carbonyl]-7-fluoro-1-methyl-benzimidazol-2-yl]-2-methyl-3,6,9,16,22-pentazatetracyclo[14.5.2.0^ {5,10}.0^{19,23}] tricosa-1(22),5(10),6,8,17,19 (23),20-heptaen-4-one] | 6.79
COc1cc(C(=O)N(C)[C@H]2CNCC[C@@H]2F)cc2nc(-c3cc4ccc5nc4n3CCCCCCC(C)(C)C(=O)N[C@@H]5C)n(C)c12 [Example 514, ~{N}-[(3~{S},4~{S})-4-fluoro-3-piperidyl]-7-methoxy-~{N},1-dimethyl-2-[(11~{R})-8,8,11-trimethyl-9-oxo-1,10,19-triazatricyclo[10.5.2.0^ {15,18}]nonadeca-12(19),13,15(18),16-tetraen-17-yl]benzimidazole-5-carboxamide] | 6.43
C[C@H]1NC(=O)C(C)(C)CCCCCn2c(-c3nc4cc(C(=O)N[C@H]5CNCC[C@@H]5F)c(F)cc4n3C3CC3)cc3ccc1nc32 [Example 515, 1-cyclopropyl-6-fluoro- ~{N}-[(3~{S},4~{S})-4-fluoro-3-piperidyl]-2-[(10~{R})-7,7,10-trimethyl-8-oxo-1,9,18-triazatricyclo [9.5.2.0^{14,17}]octadeca-11(18),12,14(17),15-tetraen-16-yl]benzimidazole-5-carboxamide] | 7.13
COc1cc(C(=O)N[C@H]2CNCC[C@@H]2F)cc2nc(-c3cc4ccc5nc4n3CC/C=C\C[C@H]3C[C@H]3C(=O)N[C@@H]5C)n(C)c12 [Example 516, ~{N}-[(3~{S},4~ {S})-4-fluoro-3-piperidyl]-7-methoxy-1-methyl-2-[(2~{R},5~{R},7~ {S},9~{Z})-2-methyl-4-oxo-3,13,19-triazatetracyclo[11.5.2.0^ {5,7}.0^{16,20}]icosa-1(19),9,14,16(20),17-pentaen-14-yl]benzimidazole-5-carboxamide] | 7.32
